In US20190185865A1, “USE OF PROKARYOTIC TRANSCRIPTIONAL ACTIVATORS AS METABOLITE BIOSENSORS IN EUKARYOTIC CELLS” (Danmarks Tekniske Universitet, priority 2016, published 2019) one finds solubility data, which are given here for one compound.

This data set can be described thus: Solubility in growth medium. The class given is physicochemical. The following applies: aqueous buffer, read-out: highest soluble CCM concentration.

Several values for one entry are separate records, joined by “and”; a condition that tells them apart may be missing. Equal entries are not always repeated.

`O=C(O)/C=C\C=C/C(=O)O` [CCM, cis, cis-muconic acid]: the solubility was 1400 µM and 200 µg/mL.
